Laboratory results from patent US10208067B2, “Compounds for treating spinal muscular atrophy” (Hoffmann-La Roche Inc., priority 2015, dated 2019).
Where two headings read alike, the source gives them in different places.

Assays:
[1] = tested on: SMN protein in SMA patient fibroblast cells (GM03813); test: SMN protein assay (HTRF) in cultured cells; type: cell-based; settings: Homo sapiens, SMA Type 1 patient fibroblasts, 48 hours; for EC (1.5-fold): concentration producing 1.5 times SMN protein vs vehicle, read-out: EC1.5x SMN protein; for maximal fold induction: relative to vehicle control, read-out: max. fold increase of SMN protein
Experimental: The SMN HTRF (homogeneous time resolved fluorescence) assay is used to quantify the level of SMN protein in SMA patient fibroblast cells treated with test compounds. Materials used and respective sources are listed below in Table 4.
Cells are thawed and cultured in DMEM-10% FBS for 72 hours. Cells are trypsinized, counted and re-suspended to a concentration of 25,000 cells/mL in DMEM-10% FBS. The cell suspensions are plated at 5,000 cells per well in a 96 well microtiter plate and incubated for […]. […] 1 μL of test compound solution is transferred to cell-containing wells and cells are incubated for 48 hours in a cell culture incubator (37° C., 5% CO2, 100% relative humidity). Triplicate samples are set up for each test compound concentration. After 48 hours, the supernatant is removed from the wells and 25 μL of the RIPA lysis buffer, containing protease inhibitors, is added to the wells and incubated with shaking at room temperature for 1 hour. 25 μL of the diluent is added and then 35 μL of the resulting lysate is transferred to a 384-well plate, where each well contains 5 μL of the antibody solution (1:100 dilution of anti-SMN d2 and anti-SMN cryptate in SMN reconstitution buffer). The plate is centrifuged for 1 minute to bring the solution to the bottom of the wells, then incubated overnight at room temperature. Fluorescence for each well of the plate at 665 nm and 620 nm is measured on an EnVision multilabel plate reader (Perkin-Elmer).
The normalized fluorescence signal is calculated for each sample, Blank and vehicle control well by dividing the signal at 665 nm by the signal at 620 nm. Normalizing the signal accounts for possible fluorescence quenching due to the matrix effect of the lysate. The ΔF value (a measurement of SMN protein abundance as a percent value) for each sample well is calculated by subtracting the normalized average fluorescence for the Blank control wells from the normalized fluorescence for each sample well, then dividing this difference by the normalized average fluorescence for the Blank control wells and multiplying the resulting value by 100. The ΔF value for each sample well represents the SMN protein abundance from test compound-treated samples. The ΔF value for each sample well is divided by the ΔF value for the vehicle control wells to calculate the fold increase in SMN protein abundance relative to the vehicle control. Table 5 provides EC1-5× concentrations for SMN protein expression that was obtained from the 7-point concentration data generated according to the above procedure for particular compounds of the present invention.
Table 6 provides the maximum fold increase of SMN protein that was obtained from the 7-point concentration data generated according to the above procedure for particular compounds of the present invention

[2] = tested on: full length SMN2 minigene mRNA (HEK293H cells stably transfected with SMN2-A minigene); test: RT-qPCR assay for SMN2 minigene pre-mRNA splicing in cultured cells; type: cell-based; settings: Homo sapiens, HEK293-H, 24 hours
[3] = Table 3 (title: production of full length SMN2 minigene mRNA), read-out: EC1.5x SMN protein
[4] = concentration increasing full length SMN2 minigene mRNA 1.5-fold vs vehicle, read-out: EC1.5x minigene

| SMILES | EC (1.5-fold) [1] | maximal fold induction [1] | EC (1.5-fold) [2, 3] | EC (1.5-fold) [2, 4] |
| --- | --- | --- | --- | --- |
| Cc1nc2ccc(-c3cc(=O)n4cc(N5CCNC6(CC6)C5)ccc4n3)nn2n1 [Example 44, 7-(4,7-diazaspiro[2.5]octan-7-yl)-2-(2-methyl-[1,2,4]triazolo[1,5-b]pyridazin-6-yl)pyrido[1,2-a]pyrimidin-4-one] | 0.265 µM | 2.02 | 0.0578 µM |  |
| Cc1nc2ncc(-c3cc(=O)n4cc(N5CCNC(C)(C)C5)ccc4n3)cn2n1 [Example 6, 7-(3,3-dimethylpiperazin-1-yl)-2-(2-methyl-[1,2,4]triazolo[1,5-a]pyrimidin-6-yl)pyrido[1,2-a]pyrimidin-4-one] | 2.15 µM | 1.7 |  | 0.201 µM |
| Cc1nc2ncc(-c3cc(=O)n4cc(N5CCN(C6COC6)CC5)ccc4n3)cn2n1 [Example 14, 7-[4-(oxetan-3-yl)piperazin-1-yl]2-(2-methyl-[1,2,4]triazolo[1,5-a]pyrimidin-6-yl)pyrido[1,2-a]pyrimidin-4-one] | > 31.6 µM | 1.35 |  | 26.2 µM |
| Cc1nc2ccc(-c3cc(=O)n4cc(N5CC[C@@H](N(C)C)C5)ccc4n3)nn2n1 [Example 41, 7-[(3R)-3-(dimethylamino)pyrrolidin-1-yl]-2-(2-methyl-[1,2,4]triazolo[1,5-b]pyridazin-6-yl)pyrido[1,2-a]pyrimidin-4-one] | 0.207 µM | 1.75 | 0.163 µM |  |
| Cc1nc2ncc(-c3cc(=O)n4cc(N5CC6(CNC6)C5)ccc4n3)cn2n1 [Example 7, 7-(2,6-diazaspiro[3.3]heptan-2-yl)-2-(2-methyl-[1,2,4]triazolo[1,5-a]pyrimidin-6-yl)pyrido[1,2-a]pyrimidin-4-one] | 0.247 µM | 1.78 |  | 0.107 µM |
| Cc1nc2ccc(-c3cc(=O)n4cc(N5CCCN(C)CC5)ccc4n3)nn2n1 [Example 20, 7-(4-methyl-1,4-diazepan-1-yl)-2-(2-methyl-[1,2,4]triazolo[1,5-b]pyridazin-6-yl)pyrido[1,2-a]pyrimidin-4-one] | 0.12 µM | 1.77 | 0.0418 µM |  |
| Cc1nc2ncc(-c3cc(=O)n4cc(N5CCN(C6CNC6)CC5)ccc4n3)cn2n1 [Example 10, 7-[4-(azetidin-3-yl)piperazin-1-yl]-2-(2-methyl-[1,2,4]triazolo[1,5-a]pyrimidin-6-yl)pyrido[1,2-a]pyrimidin-4-one] | 30 µM | 1.5 |  | 5.93 µM |
| Cc1nc2ccc(-c3cc(=O)n4cc(N5CCNCC5)ccc4n3)nn2n1 [Example 19, 7-piperazin-1-yl-2-(2-methyl-[1,2,4]triazolo[1,5-b]pyridazin-6-yl)pyrido[1,2-a]pyrimidin-4-one] | 0.0392 µM | 1.81 | 0.009 µM |  |
| Cc1nc2ncc(-c3cc(=O)n4cc(N5CCNCC5)ccc4n3)cn2n1 [Example 1, 2-(2-methyl-[1,2,4]triazolo[1,5-a]pyrimidin-6-yl)-7-piperazin-1-yl-pyrido[1,2-a]pyrimidin-4-one] | 0.221 µM | 1.9 |  | 0.0584 µM |
| Cc1nc2ccc(-c3cc(=O)n4cc(N5C[C@@H](C)N[C@@H](C)C5)ccc4n3)nn2n1 [Example 22, 7-[(3R,5S)-3,5-dimethylpiperazin-1-yl]-2-(2-methyl-[1,2,4]triazolo[1,5-b]pyridazin-6-yl)pyrido[1,2-a]pyrimidin-4-one] | 0.228 µM | 1.76 | 0.0434 µM |  |
| Cc1nc2ccc(-c3cc(=O)n4cc(N5CCNCC5)cc(C)c4n3)nn2n1 [Example 15, 9-methyl-7-piperazin-1-yl-2-(2-methyl-[1,2,4]triazolo[1,5-b]pyridazin-6-yl)pyrido[1,2-a]pyrimidin-4-one] | < 0.03 µM | 1.82 |  | < 0.03 µM |
| Cc1nc2ccc(-c3cc(=O)n4cc(N5CC[C@@H](N(C)C)C5)cc(C)c4n3)nn2n1 [Example 30, 7-[(3R)-3-(dimethylamino)pyrrolidin-1-yl]-9-methyl-2-(2-methyl-[1,2,4]triazolo[1,5-b]pyridazin-6-yl)pyrido[1,2-a]pyrimidin-4-one] | 0.0279 µM | 1.98 | 0.0065 µM |  |
| Cc1nc2ccc(-c3cc(=O)n4cc(N5CC6(CN(C)C6)C5)ccc4n3)nn2n1 [Example 46, 7-(6-methyl-2,6-diazaspiro[3.3]heptan-2-yl)-2-(2-methyl-[1,2,4]triazolo[1,5-b]pyridazin-6-yl)pyrido[1,2-a]pyrimidin-4-one] | 0.0314 µM | 1.75 | 0.003 µM |  |
| Cc1nc2ncc(-c3cc(=O)n4cc(N5CCCN(C)CC5)ccc4n3)cn2n1 [Example 4, 7-(4-methyl-1,4-diazepan-1-yl)-2-(2-methyl-[1,2,4]triazolo[1,5-a]pyrimidin-6-yl)pyrido[1,2-a]pyrimidin-4-one] | 0.324 µM | 1.78 |  | 0.1 µM |
| Cc1nc2ccc(-c3cc(=O)n4cc(N5C[C@H](C)N[C@@H](C)C5)ccc4n3)nn2n1 [Example 42, 7-[(3S,5S)-3,5-dimethylpiperazin-1-yl]-2-(2-methyl-[1,2,4]triazolo[1,5-b]pyridazin-6-yl)pyrido[1,2-a]pyrimidin-4-one] | 0.0629 µM | 1.81 | 0.0083 µM |  |
| Cc1nc2ccc(-c3cc(=O)n4cc(N5CCN[C@@H](C)C5)cc(C)c4n3)nn2n1 [Example 45, 9-methyl-7-[(3S)-3-methylpiperazin-1-yl]-2-(2-methyl-[1,2,4]triazolo[1,5-b]pyridazin-6-yl)pyrido[1,2-a]pyrimidin-4-one] | 0.009 µM | 2.04 | 0.0008 µM |  |
| Cc1nc2ncc(-c3cc(=O)n4cc(N5CC[C@@H](N(C)C)C5)ccc4n3)cn2n1 [Example 3, 7-[(3R)-3-(dimethylamino)pyrrolidin-1-yl]-2-(2-methyl-[1,2,4]triazolo[1,5-a]pyrimidin-6-yl)pyrido[1,2-a]pyrimidin-4-one] | 0.52 µM | 1.79 |  | 0.0452 µM |
| Cc1nc2ccc(-c3cc(=O)n4cc(N5CCN6CCC[C@@H]6C5)ccc4n3)nn2n1 [Example 36, 7-[(8aR)-3,4,6,7,8,8a-hexahydro-1H-pyrrolo[1,2-a]pyrazin-2-yl]-2-(2-methyl-[1,2,4]triazolo[1,5-b]pyridazin-6-yl)pyrido[1,2-a]pyrimidin-4-one] | 0.0997 µM | 1.92 | 0.0158 µM |  |
| Cc1nc2ncc(-c3cc(=O)n4cc(N5C[C@@H](C)N[C@@H](C)C5)ccc4n3)cn2n1 [Example 2, 7-[(3R,5S)-3,5-dimethylpiperazin-1-yl]-2-(2-methyl-[1,2,4]triazolo[1,5-a]pyrimidin-6-yl)pyrido[1,2-a]pyrimidin-4-one] | 0.508 µM | 1.93 |  | 0.067 µM |
| Cc1nc2ccc(-c3cc(=O)n4cc(N5C[C@H](C)N[C@@H](C)C5)cc(C)c4n3)nn2n1 [Example 37, 7-[(3S,5S)-3,5-dimethylpiperazin-1-yl]-9-methyl-2-(2-methyl-[1,2,4]triazolo[1,5-b]pyridazin-6-yl)pyrido[1,2-a]pyrimidin-4-one] | 0.0337 µM | 1.78 | 0.0026 µM |  |
| Cc1nc2ncc(-c3cc(=O)n4cc(N5CC6CN(C)CC6C5)ccc4n3)cn2n1 (stereo not drawn) [Example 8] | 0.313 µM | 1.85 |  | 0.0659 µM |
| Cc1nc2ccc(-c3cc(=O)n4cc(N5C[C@H]6CN(C)C[C@H]6C5)cc(C)c4n3)nn2n1 [Example 29, 7-[(3aS,6aR)-2-methyl-1,3,3a,4,6,6a-hexahydropyrrolo[3,4-c]pyrrol-5-yl]-9-methyl-2-(2-methyl-[1,2,4]triazolo[1,5-b]pyridazin-6-yl)pyrido[1,2-a]pyrimidin-4-one] | 0.0077 µM | 1.77 | 0.0008 µM |  |
